The values that follow come from patent US10576101B2, “Roneparstat combined therapy of multiple myeloma” (Leadiant Biosciences SA, priority 2015, dated 2020).

Read-outs that look alike come from different tables or passages of the source.

Data set [1] relates to nonclinical tumor models, including multiple myeloma. Conditions: cited from earlier work.
Data set [2] concerns CAG HPSE high cells. Kind of data set: Experimental metastasis model of myeloma, roneparstat in vivo combination with bortezomib. Also on record: species or system Mouse, CB. 17/Icr SCID. Conditions: roneparstat 120 mg/kg/day s.c., bortezomib 0.5 mg/kg/twice a week i.p., two weeks, serum Day 21.
The test system of data set [3] is a variety of cancer cell types. Conditions: cited from earlier work.
Another data set deals with HPSE-high cells. Kind of data set: Cell viability by MTT assay, roneparstat with carfilzomib. The class given is cell-based, human. The following applies: roneparstat 6.75 μM or carfilzomib 15 nM alone. The source says:
CAG human myeloma cell line was established at the Myeloma Institute for Research and Therapy (Little Rock, Ark.). CAG cells with modified levels of heparanase expression have been extensively characterized and include (a) heparanase-low (HPSE-low) cells prepared by transfection with empty vector; and (b) heparanase-high (HPSE-high) cells prepared by transfection with vector containing the cDNA for human heparanase. Although HPSE-high cells express a 4-fold higher level of heparanase than do the HPSE-low cells, the elevated levels of enzyme activity present in HPSE-high cells are in the same range as that present in the bone marrow of many myeloma patients (Kelly T. et al, Cancer Res 2003; 63:8749-56). […] The preparation of the CAG-HPSE high cells is described in Yang Y, et al, The Journal Of Biological Chemistry, Vol. 282, No. 18, pp. 13326-13333, May 4, 2007 (see in particular page 13327, left column, the paragraph beginning with “For transfections . . . ”).
HPSE-high cells were seeded in serum free media overnight and then treated with 6.75 μM roneparstat (Rone) for 6 hours, washed and then treated with carfilzomib (CFZ) (15 nM) for 14 hours and viability was assessed by MTT assay. The MTT assay is a colorimetric assay for assessing cell viability, which takes its name from tetrazolium dye MTT (3-(4,5-dimethylthiazol-2-yl)-2,5-diphenyltetrazolium bromide). […]

The subject of the next data set is proteasome. Conditions: in animals; cited from earlier work.
Data set [4] relates to solid and hematologic tumor cells. Conditions: cited from earlier work.
The subject of data set [5] is models of multiple myeloma, hematologic, and solid tumors. Conditions: cited from earlier work.
Data set [6] concerns CAG HPSE high cells. Format: in vivo, Mouse, CB. 17/Icr SCID.
Data set [7] deals with CAG HPSE high cells. The class given is in vivo, Mouse, CB. 17/Icr SCID. The source holds these as a separate data set.
The subject of the next data set is multiple myeloma. Conditions: high-dose 200 mg/m^2 followed by ASCT after VAD induction, patients younger than 65 years; cited from earlier work.
A further data set relates to diabetic nephropathy. The following applies: mouse models of diabetic nephropathy; cited from earlier work.
Where [8] appears, read: roneparstat 60 mg/kg/day s.c., melphalan 1 mg/kg/week i.p., two weeks, serum Day 21.

With `CC(C)C[C@H](NC(=O)[C@H](Cc1ccccc1)NC(=O)c1cnccn1)B(O)O` [Bortezomib], the “tumor growth in vivo” value in [1] is “causes a delay in tumor growth”. Besides, in the data set with CAG HPSE high cells [2], the “% of animals with kappa levels (above detection limit)” value was 75% and the “animals with detectable levels of human immunoglobulin light chain (detectable tumor burden)” value (“animals with detectable levels” below) is 8/10. In data set [3], the cytotoxicity in vitro result is on record as “cytotoxic”.
Turning to `CC(C)C[C@H](NC(=O)[C@H](CCc1ccccc1)NC(=O)CN1CCOCC1)C(=O)N[C@@H](Cc1ccccc1)C(=O)N[C@@H](CC(C)C)C(=O)[C@@]1(C)CO1` [Carfilzomib, (2S)—N—((S)-1-((S)-4-methyl-1-((R)-2-methyloxiran2-yl)-1-oxopentan-2-ylcarbamoyl)-2-phenylethyl)-2-((S)-2-(2-morpholinoacetamido)4-phenylbutanamido)-4-methylpentanamide], the “decrease of viability (MTT), agent administered alone” value in the data set on HPSE-high cells is “neither roneparstat or carfilzomib provided significant results”. For the same compound, the “proteasome activity in blood and tissue” value with proteasome is reported as “inhibited proteasome activity”. In addition, in [4], the “antiproliferative and proapoptotic activities in vitro” value was “had antiproliferative and proapoptotic activities”. The tumor growth result in data set [5] is listed as “delayed tumor growth”.
In the case of `N[C@@H](Cc1ccc(N(CCCl)CCCl)cc1)C(=O)O` [Melphalan], in the data set with CAG HPSE high cells [6] (setting [8]), the “% of animals with kappa levels (above detection limit)” value was 70% and the “animals with detectable levels” value is given as 7/10. Besides, the “animals with detectable tumor burden” value in the data set with CAG HPSE high cells [7] (after initial melphalan treatment, PBS for the next two weeks) is 7/11. For the same compound, in the data set on multiple myeloma, the survival is 5 years.
Consider Roneparstat, for which the “decrease of viability (MTT), agent administered alone” value in the data set on HPSE-high cells is “neither roneparstat or carfilzomib provided significant results”. Also, the “% of animals with kappa levels (above detection limit)” value with CAG HPSE high cells [6] (mouse, in vivo) stood at 89%; in the data set with CAG HPSE high cells [2] it was 70%. In addition, the “animals with detectable levels” value in the data set with CAG HPSE high cells [6] (mouse, in vivo) is listed as 8/9; with CAG HPSE high cells [2] it was 6/8. Also, the “animals with detectable tumor burden” value with CAG HPSE high cells [7] (mouse, in vivo) is given as 3/10. Also, the “extent of albuminuria and renal damage” value in the data set with diabetic nephropathy was “markedly decreased”.
